Assay results as given in patent US20260035382A1, “COMPOUNDS AS SUMO ACTIVATING ENZYME INHIBITORS” (WIGEN BIOMEDICINE TECHNOLOGY (SHANGHAI) CO., LTD., priority 2022, published 2026).

molecular target: SAE (Homo sapiens (Human), UniProt Q9UBT2); test: In vitro inhibitory activity assay against SAE (SUMO-2/3 immunofluorescence in HCT116 cells); assay type: cell-based; conditions: 6 h incubation, class symbols, read-out: SUMO IF IC50
Summary of the method: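 HCT116 cells treated with compounds for 6 h at 37 °C, then fixed, permeabilized and immunostained for SUMO-2/3 with FITC secondary detection. Fluorescence compared with DMSO control to give inhibition rate and IC50.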

Sequence of SAE (Q9UBT2 whole entry): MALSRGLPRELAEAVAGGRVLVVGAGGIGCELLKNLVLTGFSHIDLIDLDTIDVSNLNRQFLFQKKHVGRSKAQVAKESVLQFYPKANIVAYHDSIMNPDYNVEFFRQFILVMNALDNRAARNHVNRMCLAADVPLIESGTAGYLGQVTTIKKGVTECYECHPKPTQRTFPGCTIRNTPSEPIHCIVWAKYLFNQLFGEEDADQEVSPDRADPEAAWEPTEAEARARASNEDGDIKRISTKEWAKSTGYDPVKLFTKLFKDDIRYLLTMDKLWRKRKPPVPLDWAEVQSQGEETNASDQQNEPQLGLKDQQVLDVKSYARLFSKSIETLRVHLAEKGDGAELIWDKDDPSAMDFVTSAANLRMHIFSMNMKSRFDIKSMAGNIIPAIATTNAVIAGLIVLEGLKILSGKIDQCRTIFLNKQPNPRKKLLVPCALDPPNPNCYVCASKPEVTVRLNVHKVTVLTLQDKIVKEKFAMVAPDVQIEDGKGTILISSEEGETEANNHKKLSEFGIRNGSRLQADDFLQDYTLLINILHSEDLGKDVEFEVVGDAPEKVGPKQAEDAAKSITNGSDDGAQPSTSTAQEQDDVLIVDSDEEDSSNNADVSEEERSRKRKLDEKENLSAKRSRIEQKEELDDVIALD
Sequence of SAE (Q9UBE0 whole entry partner): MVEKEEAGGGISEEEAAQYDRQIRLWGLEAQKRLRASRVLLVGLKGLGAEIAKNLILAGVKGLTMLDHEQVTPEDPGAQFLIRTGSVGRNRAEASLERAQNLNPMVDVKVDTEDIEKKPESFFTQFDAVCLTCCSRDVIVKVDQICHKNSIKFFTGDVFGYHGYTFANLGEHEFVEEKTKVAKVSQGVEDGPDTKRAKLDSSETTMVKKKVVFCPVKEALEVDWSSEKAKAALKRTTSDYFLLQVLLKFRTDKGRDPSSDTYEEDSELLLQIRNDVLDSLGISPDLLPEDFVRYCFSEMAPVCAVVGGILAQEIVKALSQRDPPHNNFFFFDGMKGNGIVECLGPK

SMILES | IC50 [nM]
NS(=O)(=O)OC[C@H]1C[C@@H](Nc2ncncc2C(=O)c2cc3c(s2)CCCC32NCC(=O)c3ccc(Cl)cc32)C[C@@H]1O (stereo partly drawn) [Compound 41] | 50 to 200
N#Cc1cc2c(cc1Cl)[C@@]1(CCCc3sc(C(=O)c4cncnc4N[C@@H]4C[C@H](COS(N)(=O)=O)[C@@H](O)C4)cc31)NCC2 [Compound 210] | ≤ 50
NS(=O)(=O)OC[C@H]1C[C@@H](Nc2ncncc2C(=O)c2cc3c(s2)CC[C@]32NCCc3cc(Cl)c(F)cc32)C[C@@H]1O [Compound 234] | ≤ 50
NS(=O)(=O)OC[C@H]1C[C@@H](Nc2ncncc2C(=O)c2cc3c(s2)C=C[C@]32NCCc3ccc(F)cc32)C[C@@H]1O [Compound 178] | ≤ 50
NS(=O)(=O)OC[C@H]1C[C@@H](Nc2ncncc2C(=O)c2cc3c(s2)CC[C@]32NCCc3cc(Cl)ncc32)C[C@@H]1O [Compound 236] | 50 to 200
NS(=O)(=O)OC[C@H]1C[C@@H](Nc2ncncc2C(=O)c2cc3c(s2)COCC32NCCc3ccc(Cl)c(Cl)c32)C[C@@H]1O (stereo partly drawn) [Compound 94] | 50 to 200
NS(=O)(=O)OC[C@H]1C[C@@H](Nc2ncncc2C(=O)c2cc3c(s2)CCC[C@]32NCCc3cc(F)c(Cl)c(F)c32)C[C@@H]1O [Compound 212] | ≤ 50
NS(=O)(=O)OC[C@H]1C[C@@H](Nc2ncncc2C(=O)c2nc3c(s2)CCCC32NCCc3ccc(Cl)cc32)C[C@@H]1O (stereo partly drawn) [Compound 121] | > 200
NS(=O)(=O)OC[C@H]1C[C@@H](Nc2ncncc2C(=O)c2cc3c(s2)COCC32NCCc3ccc(Cl)c(F)c32)C[C@@H]1O (stereo partly drawn) [Compound 103] | 50 to 200
NS(=O)(=O)OC[C@H]1C[C@@H](Nc2ncncc2C(=O)c2cc3c(s2)OC[C@]32NCCc3ccc(Cl)cc32)C[C@@H]1O [Compound 63] | 50 to 200
NS(=O)(=O)OC[C@H]1C[C@@H](Nc2ncncc2C(=O)c2cc3c(s2)C=C[C@@]32OCCc3ccccc32)C[C@@H]1O [Compound 290] | > 200
N#Cc1cc2c(cc1Cl)[C@@]1(CCc3sc(C(=O)c4cncnc4N[C@@H]4C[C@H](COS(N)(=O)=O)[C@@H](O)C4)cc31)NCC2 [Compound 231] | ≤ 50
NS(=O)(=O)OC[C@H]1C[C@@H](Nc2ncncc2C(=O)c2cc3c(s2)CSC[C@]32NCCc3ccccc32)C[C@@H]1O [Compound 87] | 50 to 200
NS(=O)(=O)OC[C@H]1C[C@@H](Nc2ncncc2C(=O)c2cc3c(s2)CCC[C@]32OCCc3ccc(Cl)cc32)C[C@@H]1O [Compound 222] | ≤ 50
NS(=O)(=O)OC[C@H]1C[C@@H](Nc2ncncc2C(=O)c2cc3c(s2)CCC32OCCc3ccc(Cl)cc32)C[C@@H]1O (stereo partly drawn) [Compound 84] | ≤ 50
NS(=O)(=O)OC[C@H]1C[C@@H](Nc2ncncc2C(=O)c2cc3c(s2)CCC32NCCc3ccccc32)C[C@@H]1O (stereo partly drawn) [Compound 43] | > 200
N#Cc1ccc2c(c1)[C@]1(CCc3sc(C(=O)c4cncnc4N[C@@H]4C[C@H](COS(N)(=O)=O)[C@@H](O)C4)cc31)OCC2 [Compound 287] | > 200
NS(=O)(=O)OC[C@H]1C[C@@H](Nc2ncncc2C(=O)c2cc3c(s2)COCC32NCCc3cc(F)c(Cl)cc32)C[C@@H]1O (stereo partly drawn) [Compound 106] | 50 to 200
Cc1ccc2c(c1)C1(CCCc3sc(C(=O)c4cncnc4N[C@@H]4C[C@H](COS(N)(=O)=O)[C@@H](O)C4)cc31)NCC2 (stereo partly drawn) [Compound 22] | 50 to 200
NS(=O)(=O)OC[C@H]1C[C@@H](Nc2ncncc2C(=O)c2cc3c(s2)CCC32OCCc3ccccc32)C[C@@H]1O (stereo partly drawn) [Compound 280] | > 200
NS(=O)(=O)OC[C@H]1C[C@@H](Nc2ncncc2C(=O)c2cc3c(s2)C(=O)C[C@@]32NCCc3ccc(Cl)cc32)C[C@@H]1O [Compound 167] | > 200
NS(=O)(=O)OC[C@H]1C[C@@H](Nc2ncncc2C(=O)c2cc3c(s2)CCC[C@]32NCCc3ccc(C(F)(F)F)cc32)C[C@@H]1O [Compound 205] | 50 to 200
CN1CCc2ccc(Cl)cc2C12CCCc1sc(C(=O)c3cncnc3N[C@@H]3C[C@H](COS(N)(=O)=O)[C@@H](O)C3)cc12 (stereo partly drawn) [Compound 130] | 50 to 200
NS(=O)(=O)OC[C@H]1C[C@@H](Nc2ncncc2C(=O)c2cc3c(s2)CCC32NCCc3cc(F)c(F)cc32)C[C@@H]1O (stereo partly drawn) [Compound 68] | 50 to 200
N#Cc1ccc2c(c1)[C@]1(CCCc3sc(C(=O)c4cncnc4N[C@@H]4C[C@H](COS(N)(=O)=O)[C@@H](O)C4)cc31)OCC2 [Compound 251] | > 200

SMILES | IC50 [nM]
CN1Cc2sc(C(=O)c3cncnc3N[C@@H]3C[C@H](COS(N)(=O)=O)[C@@H](O)C3)cc2C2(C1)OCCc1ccc(F)cc12 (stereo partly drawn) [Compound 256] | 50 to 200
NS(=O)(=O)OC[C@H]1C[C@@H](Nc2ncncc2C(=O)c2cc3c(s2)C(=O)C[C@]32NCCc3ccc(Cl)cc32)C[C@@H]1O [Compound 168] | 50 to 200
NS(=O)(=O)OC[C@H]1C[C@@H](Nc2ncncc2C(=O)c2cc3c(s2)CNC[C@]32NCCc3ccc(Cl)cc32)C[C@@H]1O [Compound 120] | 50 to 200
NS(=O)(=O)OC[C@H]1C[C@@H](Nc2ncncc2C(=O)c2cc3c(s2)C(F)(F)C[C@@]32NCCc3ccc(Cl)cc32)C[C@@H]1O [Compound 161] | > 200
NS(=O)(=O)OC[C@H]1C[C@@H](Nc2ncncc2C(=O)c2cc3c(s2)C(=O)CC32NCCc3ccc(Cl)cc32)C[C@@H]1O (stereo partly drawn) [Compound 166] | 50 to 200
NS(=O)(=O)OC[C@H]1C[C@@H](Nc2ncncc2C(=O)c2cc3c(s2)CCC32NCCc3cc(Cl)c(F)cc32)C[C@@H]1O (stereo partly drawn) [Compound 75] | 50 to 200
NS(=O)(=O)OC[C@H]1C[C@@H](Nc2ncncc2C(=O)c2cc3c(s2)CCC32NCC3(CC3)c3ccc(Cl)cc32)C[C@@H]1O (stereo partly drawn) [Compound 81] | 50 to 200
NS(=O)(=O)OC[C@H]1C[C@@H](Nc2ncncc2C(=O)c2cc3c(s2)OCC32NCCc3ccc(Cl)cc32)C[C@@H]1O (stereo partly drawn) [Compound 61] | 50 to 200
CC(C)N1Cc2sc(C(=O)c3cncnc3N[C@@H]3C[C@H](COS(N)(=O)=O)[C@@H](O)C3)cc2C2(C1)OCCc1ccc(F)cc12 (stereo partly drawn) [Compound 268] | 50 to 200
Cc1cc2c(cc1Cl)C1(CCCc3sc(C(=O)c4cncnc4N[C@@H]4C[C@H](COS(N)(=O)=O)[C@@H](O)C4)cc31)NCC2 (stereo partly drawn) [Compound 29] | 50 to 200
NS(=O)(=O)OC[C@H]1C[C@@H](Nc2ncncc2C(=O)c2nc3c(s2)CSC[C@]32NCCc3ccc(Cl)cc32)C[C@@H]1O [Compound 129] | 50 to 200
NS(=O)(=O)OC[C@H]1C[C@@H](Nc2ncncc2C(=O)c2cc3c(s2)CC[C@@]32OCCc3ccc(Cl)cc32)C[C@@H]1O [Compound 242] | > 200
NS(=O)(=O)OC[C@H]1C[C@@H](Nc2ncncc2C(=O)c2cc3c(s2)CCC[C@]32NC3(CC3)Cc3ccc(Cl)cc32)C[C@@H]1O [Compound 220] | 50 to 200
NS(=O)(=O)OC[C@H]1C[C@@H](Nc2ncncc2C(=O)c2cc3c(s2)CCC[C@]32NCCc3cc(Cl)ncc32)C[C@@H]1O [Compound 215] | 50 to 200
NS(=O)(=O)OC[C@H]1C[C@@H](Nc2ncncc2C(=O)c2cc3c(s2)C=CC32OCCc3ccc(Cl)cc32)C[C@@H]1O (stereo partly drawn) [Compound 295] | ≤ 50
NS(=O)(=O)OC[C@H]1C[C@@H](Nc2ncncc2C(=O)c2cc3c(s2)CCC[C@]32NCCc3cc(F)c(F)cc32)C[C@@H]1O [Compound 206] | ≤ 50
NS(=O)(=O)OC[C@H]1C[C@@H](Nc2ncncc2C(=O)c2cc3c(s2)COC[C@]32NCCc3ccc(Cl)c(Cl)c32)C[C@@H]1O [Compound 96] | 50 to 200
NS(=O)(=O)OC[C@H]1C[C@@H](Nc2ncncc2C(=O)c2cc3c(s2)CCC32NCCc3ccc(C(F)(F)F)cc32)C[C@@H]1O (stereo partly drawn) [Compound 67] | 50 to 200
NS(=O)(=O)OC[C@H]1C[C@@H](Nc2ncncc2C(=O)c2cc3c(s2)COC[C@@]32NCCc3ccc(Cl)c(Cl)c32)C[C@@H]1O [Compound 95] | > 200
NS(=O)(=O)OC[C@H]1C[C@@H](Nc2ncncc2C(=O)c2cc3c(s2)C=C[C@]32OCCc3ccc(F)cc32)C[C@@H]1O [Compound 294] | ≤ 50
NS(=O)(=O)OC[C@H]1C[C@@H](Nc2ncncc2C(=O)c2cc3c(s2)COC32NCCc3ccc(Cl)cc32)C[C@@H]1O (stereo partly drawn) [Compound 80] | 50 to 200
NS(=O)(=O)OC[C@H]1C[C@@H](Nc2ncncc2C(=O)c2cc3c(s2)COCC32NCCc3ccc(F)cc32)C[C@@H]1O (stereo partly drawn) [Compound 16] | 50 to 200
NS(=O)(=O)OC[C@H]1C[C@@H](Nc2ncncc2C(=O)c2cc3c(s2)CSCC32NCCc3ccc(Cl)nc32)C[C@@H]1O (stereo partly drawn) [Compound 145] | 50 to 200
NS(=O)(=O)OC[C@H]1C[C@@H](Nc2ncncc2C(=O)c2cc3c(s2)CCC[C@]32NCCc3cc(F)c(Cl)cc32)C[C@@H]1O [Compound 207] | ≤ 50

same assay, conditions: 6 h incubation, numeric values, read-out: SUMO IF IC50

SMILES | IC50 [nM]
NS(=O)(=O)OC[C@H]1C[C@@H](Nc2ncncc2C(=O)c2cc3c(s2)CC[C@]32NCCc3ccc(F)cc32)C[C@@H]1O [Compound 51] | 50.7
NS(=O)(=O)OC[C@H]1C[C@@H](Nc2ncncc2C(=O)c2cc3c(s2)CC[C@]32NCCc3ccccc32)C[C@@H]1O [Compound 45] | 125
C#CCN1Cc2sc(C(=O)c3cncnc3N[C@@H]3C[C@H](COS(N)(=O)=O)[C@@H](O)C3)cc2[C@@]2(C1)NCCc1ccc(Cl)cc12 [Compound 194] | > 1000
CC(C)N1Cc2sc(C(=O)c3cncnc3N[C@@H]3C[C@H](COS(N)(=O)=O)[C@@H](O)C3)cc2[C@@]2(C1)NCCc1ccc(Cl)cc12 [Compound 185] | > 1000
NS(=O)(=O)OC[C@H]1C[C@@H](Nc2ncncc2C(=O)c2cc3c(s2)C=C[C@]32NCCc3ccc(Cl)cc32)C[C@@H]1O [Compound 176] | 23.2
NS(=O)(=O)OC[C@H]1C[C@@H](Nc2ncncc2C(=O)c2cc3c(s2)CCC[C@@]32NCCc3ccc(Cl)cc32)C[C@@H]1O [Compound 5] | > 1000
NS(=O)(=O)OC[C@H]1C[C@@H](Nc2ncncc2C(=O)c2cc3c(s2)C=C[C@@]32NCCc3ccc(Cl)cc32)C[C@@H]1O [Compound 175] | > 1000
[2H]C1([2H])Cc2ccc(Cl)cc2[C@]2(CCCc3sc(C(=O)c4cncnc4N[C@@H]4C[C@H](COS(N)(=O)=O)[C@@H](O)C4)cc32)N1 [Compound 197] | > 1000
